From patent US20020026053A1, “Novel 3-(substituted) -2- indolinones compounds and use thereof as inhibitors of protein kinase activity” (priority 1997, published 2002)

Experiments:
FLK-1 receptor = assay: FLK-1 Assay (cellular/catalytic ELISA, VEGF-stimulated phosphotyrosine); format: cell-based; design: concentration or dose not given beside the values; conditions: protocol P.110
Procedure, shortened: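 Receptor phosphotyrosine ELISA: Flk-1-expressing NIH3T3 C7#3 cells, starved overnight in 0.1% FBS medium, received compound (1:200 final dilution, 0.5% DMSO) for 2 h at 37 °C, then VEGF. Anti-FLK-1-captured receptor was probed with anti-phosphotyrosine UB40 and peroxidase/ABTS read-out, relative to cells without compound.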

PDGF-R = PDGF-R Assay (cellular ELISA, U1242 cells); format: cell-based; design: concentration or dose not given beside the values; conditions: protocol P.119
Procedure, shortened: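 Cellular ELISA for receptor autophosphorylation: after 2 hr test-compound treatment of serum-free U1242 cells at 37°C, ligand is added for 5–10 min, cells are lysed (HNTG) and receptor captured by specific antibody. Anti-phosphotyrosine plus secondary antibody with ABTS colour read at 410/630 nm, compared with compound-free control cells.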

SMILES	Flk Kinase % Inhibition (P.110) (FLK-1 receptor) [%]	PDGF Kinase % Inhibition (P.119) (PDGF-R) [%]
O=C1Nc2ccc(S(=O)(=O)N3CCOCC3)cc2C1=Cc1cc(O)c(O)c(O)c1 [10739/F07]	0.6	23.7
COc1ccc(Oc2cccc(C=C3C(=O)Nc4ccc(S(=O)(=O)N5CCOCC5)cc43)c2)cc1 [10739/F08]	7.0	9.1
CN(C)CCCOc1ccc(C=C2C(=O)Nc3ccc(S(=O)(=O)N4CCOCC4)cc32)cc1 [10739/F09]	15.6	3.3
O=C1Nc2ccc(S(=O)(=O)N3CCOCC3)cc2C1=Cc1ccoc1 [10739/F10]	12.3	4.2
O=C1Nc2ccc(S(=O)(=O)N3CCOCC3)cc2C1=Cc1ccc(CO)o1 [10739/F11]	11.9	0.8
COc1ccc(C=C2C(=O)Nc3ccc(CCCl)cc32)cc1C [10739/G02]	5.9	−12.2
O=C1Nc2ccc(CCCl)cc2C1=Cc1cccc(OCc2ccccc2)c1 [10739/G03]	1.9	−6.9
O=C1Nc2ccc(CCCl)cc2C1=Cc1ccc(OCc2ccccc2)cc1 [10739/G04]	4.5	−3.5
O=C1Nc2ccc(CCCl)cc2C1=CC1COc2ccccc2O1 (centres unmarked) [10739/G05]	10.7	−5.9
O=C1Nc2ccc(CCCl)cc2C1=Cc1ccc(O)cc1Cl [10739/G06]	14.0	−6.4
O=C1Nc2ccc(CCCl)cc2C1=Cc1cc(O)c(O)c(O)c1 [10739/G07]	−4.9	10.1
COc1ccc(Oc2cccc(C=C3C(=O)Nc4ccc(CCCl)cc43)c2)cc1 [10739/G08]	15.0	1.3
CN(C)CCCOc1ccc(C=C2C(=O)Nc3ccc(CCCl)cc32)cc1 [10739/G09]	3.1	13.9
O=C1Nc2ccc(CCCl)cc2C1=Cc1ccoc1 [10739/G10]	−2.0	−0.6
O=C1Nc2ccc(CCCl)cc2C1=Cc1ccc(CO)o1 [10739/G11]	9.8	7.6
COc1ccc(C=C2C(=O)Nc3c(Br)cc(Br)c(C)c32)cc1C [10739/H02]	2.2	−18.6
Cc1c(Br)cc(Br)c2c1C(=Cc1cccc(OCc3ccccc3)c1)C(=O)N2 [10739/H03]	1.6	−19.5
Cc1c(Br)cc(Br)c2c1C(=Cc1ccc(OCc3ccccc3)cc1)C(=O)N2 [10739/H04]	9.9	−14.2
Cc1c(Br)cc(Br)c2c1C(=Cc1ccc(O)cc1Cl)C(=O)N2 [10739/H06]	35.6	−17.1
Cc1c(Br)cc(Br)c2c1C(=Cc1cc(O)c(O)c(O)c1)C(=O)N2 [10739/H07]	−1.4	14.9
COc1ccc(Oc2cccc(C=C3C(=O)Nc4c(Br)cc(Br)c(C)c43)c2)cc1 [10739/H08]	4.0	−3.5
Cc1c(Br)cc(Br)c2c1C(=Cc1ccoc1)C(=O)N2 [10739/H10]	15.0	−13.2
